This is an account of results in patent US11357734B2, “Pharmaceutical granulations of water-soluble active pharmaceutical ingredients” (XWPHARMA LTD., priority 2020, dated 2022).

Holding throughout (type): physicochemical
Data set [1] is described as follows: Particle size distribution by laser diffraction. The text has this:
The parameter D90 refers to the point in the size distribution of a sample, up to and including which, 90% of the total volume of material in the sample is contained. For example for a D90 of 400 μm, 90% of the sample volume has a size of 400 μm or less. D50 is the size below which 50% of the total volume of material in the sample is contained. Similarly, D10 refers to the size below which 10% of the total volume of material in the sample is contained. The volume distribution of the sample can be determined by laser diffraction or by sieve analysis.
A particle size distribution can be determined by laser diffraction or by sieve analysis.
FIGS. 15 and 16 show a particle size distribution of as-crystallized active pharmaceutical ingredient and jet-milled active pharmaceutical ingredient, respectively, as determined by laser diffraction. The PSD of the as-crystallized active pharmaceutical ingredient was characterized by a D10 of 11.8 μm, a D50 of 34.0 μm, and a D90 of 72.3 μm. The PSD of the jet-milled active pharmaceutical ingredient was characterized by a D10 of 7.8 μm, a D50 of 16.1 μm, and a D90 of 21.5 μm.

A short description of data set [2]: Specific surface area by laser diffraction. Here is the method:
Specific surface area can be determined by laser diffraction.
The specific surface area distributions of as-crystallized active pharmaceutical ingredient and jet-milled active pharmaceutical ingredient was determined by laser diffraction. […] In other samples, the jet milled active pharmaceutical ingredient was characterized by a specific surface area of 1174 m^2/kg.

Data set [3] can be described thus: Tapped bulk density (USP 616). Conditions: active pharmaceutical ingredient used in Example 13. The source says:
Tapped bulk density can be determined according to USP 616.

Data set [4] is described as follows: Bulk density (USP 616, Method 1; bulk density cylinder). The text has this: Bulk density can be determined according to USP 616, Method 1.
Bulk density can be determined using a bulk density cylinder.

A short description of another data set: Hausner Ratio (USP 1174). Conditions: active pharmaceutical ingredient used in Example 13. The text has this: The Hausner Ratio can be determined according to USP 1174.
Where [5] appears, read: FIGS. 15 and 16, laser diffraction, listed as as-crystallized active pharmaceutical ingredient.
[6] abbreviates: active pharmaceutical ingredient used in Example 13.
[7] abbreviates: FIGS. 15 and 16, laser diffraction, listed as jet-milled active pharmaceutical ingredient.

Take `CC(C)[C@H](N)C(=O)OCCCC(=O)O` [As-Crystallized, 4-((L-valyl)oxy)butanoic acid]: in data set [1] (setting [5]), the “PSD D10” value is 11.8 μm, the “PSD D50” value worked out at 34.0 μm and the “PSD D90” value is 72.3 μm. In addition, in data set [1] (setting [6]), the “PSD D10” value was found to be 12 μm, the “PSD D50” value amounted to 34 μm and the “PSD D90” value is reported as 71 μm. The “specific surface area” value in data set [2] (setting [6]) was 291 m^2/kg. The molecule also registered a specific surface area in data set [2] (laser diffraction, listed as as-crystallized active pharmaceutical ingredient) of 291 m^2/kg. For the same molecule, the “API Tapped Bulk Density” value in data set [3] is given as 0.38 g/mL. In addition, the “API Bulk Density” value in data set [4] (setting [6]) is listed as 0.20 g/mL. In addition, in “Hausner Ratio (USP 1174)”, the “Hausner Ratio” value came out at 1.85.
Regarding `CC(C)[C@H](N)C(=O)OCCCC(=O)O` [Jet-Milled, 4-((L-valyl)oxy)butanoic acid], the “PSD D10” value in data set [1] (setting [7]) worked out at 7.8 μm; in data set [1] (setting [6]), 8 μm. Also, the results for the “PSD D50” value in data set [1] (setting [7]) and in data set [1] (setting [6]) were 16.1 μm and 16 μm, respectively. Moreover, the “PSD D90” value in data set [1] (setting [7]) is recorded as 21.5 μm; in data set [1] (setting [6]), 28 μm. Further, the “specific surface area” value in data set [2] (setting [6]) came out at 478 m^2/kg; in data set [2] (in other samples) it was 1174 m^2/kg; in data set [2] (laser diffraction, listed as jet-milled active pharmaceutical ingredient), 478 m^2/kg. Also, in data set [3], the “API Tapped Bulk Density” value came out at 0.20 g/mL. The “API Bulk Density” value in data set [4] (Jet Milled API used for granulation (13)) and in data set [4] (setting [6]) was 0.12 g/mL each time. For the same molecule, the “Hausner Ratio” value in “Hausner Ratio (USP 1174)” was found to be 1.700.
Regarding `CC(C)[C@H](N)C(=O)OCCCC(=O)O` [active pharmaceutical ingredient, 4-((L-valyl)oxy)butanoic acid], the bulk density turned out to be 0.263 g/mL in data set [4] (active pharmaceutical ingredient of Example 9, before Comil) and 0.15 g/mL in data set [4] (active pharmaceutical ingredient used in Examples 1-6).
